The test has as its system IL-17. The test can be described thus: IL-17 generation in mouse spleen cells under Th17 differentiation, sandwich ELISA. In kind it is cell-based. The note with it: mouse spleen cells under Th17 stimulating condition, 3 days. As to the method: In order to verify whether the biguanide derivative compound of the present invention has the activity of […] generation of IL-17 as an inflammatory cytokine in a Th17 cell which is a pathogenic cell, an expression degree of IL-17 was measured by an ELISA assay.
Spleen cells were obtained from a normal mouse of C57BL/6 (Orient Company, Korea). That is, the tissue of the spleen extracted from the mouse was finely grinded by using a teasing slide and then erythrocytes in the spleen were removed by an erythrocyte hemolysis solution. Thereafter, a PBS buffer solution was added, centrifuged, and washed to obtain spleen cells.
1×10^6 of the spleen cells from the mouse prepared through Example <2-1> were divided in a 24-well plate coated with […] of anti-CD3 antibody and simultaneously treated with 1 μg/mL of anti-CD28 antibody, 2 ng/ml of TGF-β, 20 ng/ml of IL-6 20 ng/ml, 2 μg/ml of anti-IL-4, and 2 μg/ml of anti-IFNr as a condition capable of stimulating Th17 cells, and then the cells were incubated for 3 days to induce the differentiation of the Th17 cells. […]
In order to measure an amount of the generated IL-17 cytokine, a supernatant of the incubated cells was collected and the IL-17 expression degree was examined by using a sandwich ELISA. […] Thereafter, a PNPP/DEA solution was added and colored, and then the absorbance was measured at a wavelength of 405 nm.
(In an ELISA, binding on a coated surface is turned into a signal by an enzyme label.)

`CC(C)NC(=N)NC(=N)N` [SD-000196, 1-isopropylbiguanide]: the “IL-17 generated amount, dependence on treatment concentration” value (2 μM, 20 μM and 200 μM) was “reduced depending on the treatment concentration”. Besides, the “generated amount of IL-17” value (200 μM, sandwich ELISA) was “completely suppressed”.

Source of the values: patent publication US10716771B2, “Pharmaceutical composition for preventing or treating immune diseases or inflammatory diseases, containing biguanide derivative compound as active ingredient” (THE CATHOLIC UNIVERSITY OF KOREA INDUSTRY-ACADEMIC …, priority 2013, dated 2020).
